According to publication PMC12527922, “Cocaine chemogenetics blunts drug-seeking by synthetic physiology” (Nature, 2025):
Where “and” joins values, the source holds several entries; their conditions need not be identical. Equal entries are not always repeated. Where two headings read alike, the source gives them in different places.

Biological target: coca-5HT3 (Homo sapiens, UniProt P36544, G175K/L141G/Y210F/Y217F)
Assay: [^3H]ASEM displacement, membranes of HEK293 cells expressing coca-5HT3
Assay type: binding, human α7 nAChR LBD, mouse 5HT3 IPD
Details: for [3H]ASEM binding, normalised dose-response (DR replicates): HotNM 2.000
Experimental: Cells were suspended in Tris-HCl 50 mM pH 7.4 supplemented with protease inhibitor cocktail (1:100, Sigma-Aldrich). HEK293 cells were disrupted with a 6 Polytron homogenizer (Kinematica). Homogenates were centrifuged at 48,000g (50 min, 4 °C) and washed twice in the same conditions to isolate the membrane fraction. Protein was quantified using the bicinchoninic acid method (Pierce). […] Free and membrane-bound radioligands were separated by rapid filtration of 500 μl aliquots in a 96-well plate harvester (Brandel) and washed with 2 ml of ice-cold Tris-HCl buffer. Microscint-20 scintillation liquid (65 μl per well, PerkinElmer) was added to the filter plates, plates were incubated overnight at room temperature and radioactivity counts were determined in the MicroBeta2 plate counter (PerkinElmer) with an efficiency of 41%. Two-site competition curves were fitted using Prism 10 (GraphPad). Ki values were calculated using the Cheng–Prusoff equation.

[1] = Two sites - Fit Ki, best-fit value per replicate
[2] = Two sites - Fit Ki, best-fit value, single experiment

Sequence of coca-5HT3 (P23979 242-489): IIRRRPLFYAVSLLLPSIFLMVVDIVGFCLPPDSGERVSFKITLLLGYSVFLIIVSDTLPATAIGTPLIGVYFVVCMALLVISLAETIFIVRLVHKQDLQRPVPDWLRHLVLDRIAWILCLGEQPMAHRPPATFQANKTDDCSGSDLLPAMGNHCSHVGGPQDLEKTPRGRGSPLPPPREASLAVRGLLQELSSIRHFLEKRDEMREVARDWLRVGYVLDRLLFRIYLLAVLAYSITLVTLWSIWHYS
Sequence of coca-5HT3 (P36544 23-224 L141G/G175K/Y210F/Y217F): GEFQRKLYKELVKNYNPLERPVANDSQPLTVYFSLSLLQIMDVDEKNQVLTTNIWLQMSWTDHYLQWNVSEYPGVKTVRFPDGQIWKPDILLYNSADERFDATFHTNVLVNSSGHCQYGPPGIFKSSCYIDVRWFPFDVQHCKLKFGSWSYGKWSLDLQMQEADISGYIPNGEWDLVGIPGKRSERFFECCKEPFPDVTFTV

## COC(=O)[C@H]1[C@@H](OC(=O)c2ccccc2)C[C@@H]2CC[C@H]1N2C [cocaine]
  binding to coca-5HT3: biphasic manner
KiHi MEAN, Two sites - Fit Ki, MEAN of replicates, high-affinity site, concentrations in log(M)
  Ki: 1.43e-11 M
KiHi, Two sites - Fit Ki, best-fit value per replicate, high-affinity site, concentrations in log(M)
  Ki: 2.45e-11 M and 4.07e-12 M
KiHi, Two sites - Fit Ki, best-fit value, single experiment
  Ki: 3.36e-09 M and 4.69e-10 M and 1.04e-09 M
KiLo MEAN, Two sites - Fit Ki, MEAN of replicates, low-affinity site, concentrations in log(M)
  Ki: 8.42e-07 M
KiLo, Two sites - Fit Ki, best-fit value per replicate, low-affinity site, concentrations in log(M)
  Ki: 1.34e-06 M and 3.42e-07 M
Two sites - Fit Ki, MEAN of 3 experiments
  FractionHi MEAN: 0.4542
Two sites - Fit Ki, MEAN of 3 experiments, read-out: KiHi MEAN
  Ki: 1.62e-09 M
Two sites - Fit Ki, MEAN of 3 experiments, read-out: KiLo MEAN
  Ki: 1.05e-05 M
[1]
  Bottom: 2.185 and 3.88
  Top: 100.5 and 97.8
Two sites - Fit Ki, best-fit value per replicate, fraction of high-affinity sites
  FractionHi: 0.3742 and 0.3845
Two sites - Fit Ki, best-fit value per replicate, high-affinity site, concentrations in log(M), HotNM 2.000, HotKdNM 0.1500
  logKiHi: -10.61 and -11.39
Two sites - Fit Ki, best-fit value per replicate, low-affinity site, concentrations in log(M), HotNM 2.000, HotKdNM 0.1500
  logKiLo: -5.872 and -6.466
[2]
  FractionHi: 0.6584 and 0.3371 and 0.3672
  Top: 99.93 and 93.31 and 95.95
Two sites - Fit Ki, MEAN of replicates
  FractionHi MEAN: 0.3794
Biphasic curve, displacement of [^3H]ASEM 2 nM
  high-affinity binding sites: 45 ± 10%
Competitor log(M) -4
  [3H]ASEM binding, normalised dose-response (DR replicates): 11.458 and 0
Competitor log(M) -5
  [3H]ASEM binding remaining, single experiment: 23.47 and 26.447 and 37.669
  [3H]ASEM binding, normalised dose-response (DR replicates): 47.775 and 41.228
Competitor log(M) -5.5
  [3H]ASEM binding remaining, single experiment: 17.557
  [3H]ASEM binding, normalised dose-response (DR replicates): 48.554 and 26.456
Competitor log(M) -6
  [3H]ASEM binding remaining, single experiment: 27.001
  [3H]ASEM binding, normalised dose-response (DR replicates): 57.625 and 37.983
Competitor log(M) -6.5
  [3H]ASEM binding remaining, single experiment: 30.205 and 53.107
  [3H]ASEM binding, normalised dose-response (DR replicates): 51.124 and 74.04
Competitor log(M) -7
  [3H]ASEM binding remaining, single experiment: 57.024 and 47.634
  [3H]ASEM binding, normalised dose-response (DR replicates): 70.9 and 74.174
Competitor log(M) -7.5
  [3H]ASEM binding, normalised dose-response (DR replicates): 71.728
Competitor log(M) -8
  [3H]ASEM binding remaining, single experiment: 65.97 and 67.573 and 58.641
  [3H]ASEM binding, normalised dose-response (DR replicates): 67.385 and 47.743
Competitor log(M) -8.5
  [3H]ASEM binding remaining, single experiment: 74.698 and 69.889 and 68.057
Competitor log(M) -9
  [3H]ASEM binding remaining, single experiment: 100.179 and 77.048 and 83.003
  [3H]ASEM binding, normalised dose-response (DR replicates): 72.343 and 49.428
Competitor log(M) -9.5
  [3H]ASEM binding remaining, single experiment: 97.899 and 80.952 and 89.425
Competitor log(M) -10
  [3H]ASEM binding remaining, single experiment: 96.081 and 90.356 and 93.104
  [3H]ASEM binding, normalised dose-response (DR replicates): 79.023
Competitor log(M) -10.5
  [3H]ASEM binding remaining, single experiment: 106.622 and 85.323 and 92.652
Competitor log(M) -11
  [3H]ASEM binding remaining, single experiment: 94.021 and 93.563 and 93.105
  [3H]ASEM binding, normalised dose-response (DR replicates): 91.338
Competitor log(M) -13
  [3H]ASEM binding remaining, single experiment: 96.794 and 101.374 and 101.832
  [3H]ASEM binding, normalised dose-response (DR replicates): 100.546 and 98.09
high-affinity inhibition constant (KiH), displacement of [^3H]ASEM 2 nM, two-site fit
  Ki: 1.6e-09 ± 9e-10 M
logKiHi, Two sites - Fit Ki, best-fit value, single experiment
  Ki: 3.37e-09 M and 4.69e-10 M and 1.04e-09 M
read-out: low-affinity inhibition constant (KiL), displacement of [^3H]ASEM 2 nM, two-site fit
  Ki: 1e-05 ± 7e-06 M
